From publication PMC4756849, “A novel high-throughput activity assay for the Trypanosoma brucei editosome enzyme REL1 and other RNA ligases” (Nucleic Acids Research, 2015)
Structures can show the parent of a compound that is named as a salt. Where two headings read alike, the source gives them in different places.

Key:
[1] = biological target: T1, Trypanosoma brucei REL1 (Trypanosoma brucei brucei, UniProt P86926); assay: biochemical; format: biochemical
T1 construct: made in house; host or cells: Escherichia coli BL21 (DE3), polycistronic pET-21d construct
Procedure: Substrate RNAs were annealed in the presence of 25 mM KCl, 12.5 mM Tris–HCl pH 8.0, 5 mM Mg(OAc)2 and 0.25 mM DTT at a concentration of 1 μM in 10-ml batches by incubation at 70°C for 10 min, followed by slow cooling to room temperature. Annealed substrate was stored at −80°C. For 2400 assays, 2.4 μl 100 mM ATP were added to 12 ml pre-annealed substrate and 5 μl of the mixture dispensed into each well of a 384-well assay plate (Greiner 788075). A total of 50 nl of LOPAC (Sigma-Aldrich; 2 mM in DMSO) or Maybridge Hitfinder (Thermo Fisher Scientific; 2 mM in DMSO) compounds were added per well using a Biomek FX instrument. Recombinant REL1 was diluted in 10% (v/v) glycerol, 300 mM NaCl, 2 mM DTT and 20 mM Tris–HCl pH 6.0 to a final concentration of 300 ng/μl. One hundred twenty microliter REL1 solution were added to 11.88 ml ligation buffer (5 mM KCl; 12.5 mM Tris–HCl pH 6.0; 1 mM Mg(OAc)2; 0.25 mM DTT, 0.2% (w/v) Triton X-100; 0.003% (w/v) Brij 35) and 5 μl of the REL1/ligation buffer mix were added to each well to start the reaction ([…] REL1 per well). A total of 50 μM NSC-42067 served as positive control for inhibition ([34]). As additional controls, each plate included reactions without inhibitor and reactions without REL1. After 30 min incubation at room temperature the reaction was stopped by adding 12.5 μl STOP solution (9 M urea; 20 mM EDTA). After a minimum incubation period of 15 min plates were read using a ratiometric wavelength read (excitation at 485 nm, detection at 665 and 535 nm). HTS was carried out at The Scripps Research Institute, San Diego, CA, USA.
To validate the suitability of the FRET-based REL1 activity assay for HTS, the assay conditions were adapted to 384-well format to facilitate a pilot screen. An ATP concentration of 10 μM was chosen as a compromise between sensitivity to inhibition and robust S:B ratio.
Figure 5. […] Data were plotted as% inhibition compared to controls without inhibitor and fitted to a sigmoidal curve. […] All experiments were carried out under optimized conditions, and means and standard deviations for three replicates are shown.

[2] = biological target: T1, Trypanosoma brucei REL1; assay: Non-denaturing PAGE of RNA ligation reaction by REL1; format: biochemical; conditions: increasing concentrations of compound, optimized conditions, Figure S4
Procedure: After ligation reaction, 20% (w/v) polyacrylamide gels were used to separate the RNA molecules by non-denaturing PAGE in Tris-borate-EDTA (TBE) buffer. For denaturing PAGE, gels contained 7 M urea. Gels were analyzed using a Typhoon FLA 7000 (GE Healthcare).
Figure S4. Non-denaturing PAGE showing inhibition of RNA ligation reaction by compound NSC42067. Lanes 1, 2 and 3 were loaded with the 16-nt 6-FAM 5’-RNA substrate, the 13-nt Cy5 3’- RNA substrate and a 29-nt dual 6-FAM/Cy5-labelled DNA oligo, respectively. Lane 4 was left empty.
Lanes 5 to 8 show products from standard reaction conditions and controls. Lanes 9 to 11 show the effects of increasing concentrations of NSC42067 in the assay. Ligation reactions were carried out under optimized conditions. The gel analysis confirmed the following:
Lanes 1 - 3: See Supplementary Figure S1.
Lanes 5 to 7: As before (compare Supplementary Figure S1), incubation of 5’- and 3’-RNAs with […]
The intensity of both bands increased with longer incubation time (compare lane 6 = 5 min with lane 7 = 30 min) and was dependent on the presence of REL1 (lane 5).
Figure S5. Structures of the hit compounds selected for validation.
Figure S6. Scatter plot showing the results of the second pilot screen. Compounds of the Maybridge library were incubated at 10 µM concentration in 384-well plates with REL1 (7.8 nM) in the presence […]
Stop buffer was added after 30 min. […]

[3] = test system: human hemopoietic cells; conditions: cited from earlier work
[4] = test system: T. brucei gambiense; design: method as in PMID 14982785; conditions: in vitro; cited from earlier work
[5] = dose-response curves, HTS/optimized assay conditions, 10 μM ATP, influenced by unknown percentage of active protein
[6] = dose-response curves, HTS/optimized assay conditions, 10 μM ATP, influenced by unknown percentage of active protein, read-out: IC50
[7] = single-shot HTS, 10 μM final compound concentration, 10 μM ATP, as suggested by HTS

T1 sequence (P86926 51-469): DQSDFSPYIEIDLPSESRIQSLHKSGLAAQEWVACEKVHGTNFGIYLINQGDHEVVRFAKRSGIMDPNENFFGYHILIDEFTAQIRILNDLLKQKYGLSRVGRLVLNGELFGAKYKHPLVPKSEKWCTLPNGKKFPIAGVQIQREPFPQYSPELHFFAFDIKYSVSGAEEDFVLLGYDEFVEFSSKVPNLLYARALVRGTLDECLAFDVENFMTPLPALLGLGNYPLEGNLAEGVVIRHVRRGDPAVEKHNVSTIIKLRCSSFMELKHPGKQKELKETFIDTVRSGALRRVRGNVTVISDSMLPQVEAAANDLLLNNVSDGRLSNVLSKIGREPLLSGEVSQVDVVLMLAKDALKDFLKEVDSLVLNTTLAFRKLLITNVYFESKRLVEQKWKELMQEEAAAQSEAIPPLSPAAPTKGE

## N#C/C(=C\c1ccc(O)c(O)c1)C(=O)NCCCNC(=O)/C(C#N)=C/c1ccc(O)c(O)c1 [Tyrphostin AG 537]
[1]; [5]
  IC50 (μM): low μM range
[1]; [6]
  IC50: 250 nM
[1]; [7]
  Inhibition at 10 μM: 93%

## O=[N+]([O-])/C=C/c1ccc2c(c1)OCO2 [MNS]
[1]; [7]
  Inhibition at 10 μM: 22%

## CC(=O)OC[C@H]1O[C@@H]([S-])[C@H](OC(C)=O)[C@@H](OC(C)=O)[C@@H]1OC(C)=O.CCP(CC)CC.[Au+] [Auranofin]
[1]; [7]
  Inhibition at 10 μM: 24%

## O=C(O)/C(=C/c1c(C(=O)O)[nH]c2cc(Cl)cc(Cl)c12)c1ccccc1 [MDL 105,519]
[1]; [7]
  Inhibition at 10 μM: 18%

## O=C(O)c1cc(O)c(O)c(OC(=O)c2cc(O)c(O)c(O)c2CNc2ccc3cc(S(=O)(=O)O)cc(S(=O)(=O)O)c3c2)c1 [NSC42067]
[2]
  Effect on formation of the ligation product (gel): inhibit formation of the ligation product
[1]; [6]
  IC50: 1400 nM

## Cn1c(=O)c2[nH]c(-c3ccc(S(=O)(=O)O)cc3)nc2n(C)c1=O [8-(p-Sulfophenyl)theophylline hydrate]
[1]; read-out: Inhibition at 10 μM
  Inhibition at 10 μM: 23%

## Nc1nc(Cl)nc2c1ncn2[C@@H]1O[C@H](COP(=O)(O)OP(=O)(O)OP(=O)(O)O)[C@@H](O)[C@H]1O [2-Chloroadenosine triphosphate tetrasodium hydrate]
[1]; read-out: Inhibition at 10 μM
  Inhibition at 10 μM: 18%

## O=c1c(O)c(-c2cc(O)c(O)c(O)c2)oc2cc(O)cc(O)c12 [Myricetin]
[1]
  IC50: 1780 nM
[1]; [5]
  IC50 (μM): low μM range
[1]; read-out: Inhibition at 10 μM
  Inhibition at 10 μM: 100%

## O=C(Nc1cccc(C(=O)Nc2ccc(S(=O)(=O)[O-])c3cc(S(=O)(=O)[O-])cc(S(=O)(=O)[O-])c23)c1)Nc1cccc(C(=O)Nc2ccc(S(=O)(=O)[O-])c3cc(S(=O)(=O)[O-])cc(S(=O)(=O)[O-])c23)c1.[Na+].[Na+].[Na+].[Na+].[Na+].[Na+] [NF 023 hydrate]
[1]; [5]
  IC50 (μM): low μM range
[1]; [6]
  IC50: 1950 nM
[1]; [7]
  Inhibition at 10 μM: 79%

## Cc1ccc(C(=O)Nc2ccc(S(=O)(=O)O)c3cc(S(=O)(=O)O)cc(S(=O)(=O)O)c23)cc1NC(=O)c1cccc(NC(=O)Nc2cccc(C(=O)Nc3cc(C(=O)Nc4ccc(S(=O)(=O)O)c5cc(S(=O)(=O)O)cc(S(=O)(=O)O)c45)ccc3C)c2)c1 [Suramin sodium salt]
[1]
  IC50: 2940 nM
[1]; [5]
  IC50 (μM): low μM range
[1]; read-out: Inhibition at 10 μM
  Inhibition at 10 μM: 66%

## N.N.[Cl][Pt][Cl] [cis-Diammineplatinum(II) dichloride]
[1]; [7]
  Inhibition at 10 μM: 14%

## CSc1nc(N)c2ncn([C@@H]3O[C@H](COP(=O)(O)OP(=O)(O)O)[C@@H](O)[C@H]3O)c2n1 [2-(Methylthio)adenosine 5′-diphosphate trisodium salt hydrate]
[1]; read-out: Inhibition at 10 μM
  Inhibition at 10 μM: 22%

## CC(C)N(CCC(=O)c1ccc2ccccc2c1)Cc1ccccc1.Cl [ZM 39923 hydrochloride]
[1]; [7]
  Inhibition at 10 μM: 26%

## NC(=O)c1cc[n+](CC2=C(C(=O)[O-])N3C(=O)[C@@H](NC(=O)[C@@H](c4ccccc4)S(=O)(=O)[O-])[C@H]3SC2)cc1.[Na+] [Cefsulodin sodium salt hydrate]
[1]; [7]
  Inhibition at 10 μM: 46%

## OC[C@H]1O[C@H]([S-])[C@H](O)[C@@H](O)[C@@H]1O.[Au+] [Aurothioglucose hydrate]
[1]; [5]
  IC50 (μM): low μM range
[1]; [6]
  IC50: 12100 nM
[1]; [7]
  Inhibition at 10 μM: 93%

## CC(=O)OCC1=C(C(=O)[O-])N2C(=O)[C@@H](NC(=O)CCC[C@@H](N)C(=O)[O-])[C@H]2SC1.[Zn+2] [Cephalosporin C zinc salt]
[1]; [7]
  Inhibition at 10 μM: 21%

## C#CCN[C@H](C)Cc1ccccc1.Cl [R-(–)-Desmethyldeprenyl hydrochloride]
[1]; [7]
  Inhibition at 10 μM: 38%

## O=c1c(O)c(-c2ccc(O)c(O)c2)oc2cc(O)cc(O)c12 [quercertin]
[3]
  Effect on human hemopoietic cells: without affecting human hemopoietic cells
[4]
  LD50: 10 µM

## CC(C)NC(C)Cc1ccc(I)cc1 (stereo not shown) [Iofetamine hydrochloride]
[1]; read-out: Inhibition at 10 μM
  Inhibition at 10 μM: 70%

## CC1(C)CCC2=C(O1)c1ccccc1C(=O)C2=O [β-Lapachone]
[1]; read-out: Inhibition at 10 μM
  Inhibition at 10 μM: 48%

## NC(N)=NOCC[C@H](N)C(=O)O [L-Canavanine]
[1]; read-out: Inhibition at 10 μM
  Inhibition at 10 μM: 46%

## CN(N=O)c1ccc(O)c(O)c1 [Methyl-3,4-dephostatin]
[1]; [6]
  IC50: > 50000 nM
[1]; [7]
  Inhibition at 10 μM: 97%
[1]; up to 50 μM concentration
  Inhibition in dose-response curve: no significant inhibition

## O.O=c1c(O)c(-c2ccc(O)cc2O)oc2cc(O)cc(O)c12 [Morin hydrate]
[1]; [7]
  Inhibition at 10 μM: 17%
